Results reported in publication PMC8791477, “Evaluation of SARS-CoV-2 entry, inflammation and new therapeutics in human lung tissue cells” (PLoS Pathogens, 2022).
Where a name gives a salt, the structure may show the parent alone.

B1: IL-10 (protein, UniProt P22301 19-178, looked up)
Interleukin-10: SPGQGTQSENSCTHFPGNLPNMLRDLRDAFSRVKTFFQMKDQLDNLLLKESLLEDFKGYLGCQALSEMIQFYLEEVMPQAENQDPDIKAHVNSLGENLKTLRLRLRRCHRFLPCENKSKAVEQVKNAFNKLQEKGIYKAMSEFDIFINYIEAYMTMKIRN

Legend:
SARS-CoV-2 = conditions: cited from earlier work
in vitro [1] = conditions: human, CC50 HLT
[2] = test system: IL-6 and CXCL10 expression; experiment: Immunomodulatory capacity: IL-6 and CXCL10 in LPS + IFN-γ stimulated HLT myeloid cells; type: cell-based, human; conditions: 20μM, LPS 50 ng/ml + IFN-γ 100 ng/ml, 20h
Method: HLT cells were cultured in a round-bottom 96-well plate containing 20 μM of cepharanthine, ergoloid, ciclesonide, hydroxychloroquine, ivermectin, or camostat mesylate alone or in combination with the stimuli LPS (50 ng/ml) and IFN-γ (100 ng/ml). For each patient, a negative control, cells treated with only medium, and a positive control, cells incubated in the presence of LPS and IFN-γ, were included. Immediately, brefeldin A (BD Biosciences) and monensin (BD Biosciences) were added to cells and cultured overnight at 37°C in 5% CO2. Next day, cellular suspensions were stained with the following antibodies: anti-CD11b (FITC, BioLegend), anti-CD69 (PE-CF594, BD Biosciences), anti-CD14 (APC-H7, BD Biosciences), anti-EpCAM (APC, BioLegend), anti-CD3 (BV650, BD Biosciences), anti-CD45 (BV605, BioLegend), and anti-HLA-DR (BV421, BioLegend). Cells were subsequently fixed and permeabilized using the Cytofix/Cytoperm kit (BD Biosciences) and intracellularly stained with anti-IL-6 (PE-Cy7, BioLegend), and anti-CXCL10 (PE, BioLegend). Cell viability was determined using an AQUA viability dye for flow cytometry (LIVE/DEAD fixable AQUA, Invitrogen). After fixation with PBS 2% PFA, cells were acquired in an LSR Fortessa (BD Biosciences), and data were analyzed using the FlowJo v10.6.1 software (TreeStar).

COVID-19 patients = conditions: cited from earlier work
in vitro [3] = conditions: African green monkey
ACE2 expression = experiment: Modulation of ACE2 expression in enriched AT-II cells of HLT (flow cytometry); type: cell-based, human; conditions: 20h; for ACE2 expression after anti-inflammatory drugs (in words): 100μM to 0.8μM; for ACE2 expression in enriched AT-II cells after immune stimuli (in words): IL-1β 10 ng/ml, IL-10 and GM-CSF 100 ng/ml, IFN 100 U/ml
Method: VeroE6 and lung cells were incubated with five-fold serial dilutions of selected anti-inflammatory compounds (ranging from 100μM to 0.8μM) for 20h. […] For determination of ACE2 expression, the following surface staining antibodies were used: primary goat anti-ACE2 (R&D Systems), anti-CD45 (AF700, BioLegend), anti-EpCAM (APC, BioLegend), and anti-HLA-DR (BV421, BioLegend). For ACE2 detection, cells were then stained with secondary donkey anti-goat IgG (PE, R&D Systems) for 30 min at 4°C. A Fluorescent Minus One control (FMO) without primary anti-ACE2 antibody was used as a control. Cell viability was determined using an AQUA viability dye for flow cytometry (LIVE/DEAD fixable AQUA, Invitrogen). After fixation with PBS 2% PFA, cells were acquired in an LSR Fortessa (BD Biosciences) and analyzed using the FlowJo v10.6.1 software (TreeStar).

HLT cells = conditions: for CC50: read-out: CC50 HLT, absence of virus
VeroE6 cells = conditions: for CC50: read-out: CC50 Vero E6, absence of virus
thrombin = conditions: cited from earlier work
[4] = test system: SARS-CoV-2 clinical isolate; type: cell-based
[5] = 10µM, ref Hempel et al., Chemical Science 2021

Molecule | CC50 (in vitro [1]; absence of virus) | CC50 (in vitro [3]; CC50 Vero E6, absence of virus) | further results
CN(C)C(=O)COC(=O)Cc1ccc(OC(=O)c2ccc(NC(=N)N)cc2)cc1 [Camostat, Camostat mesylate] | – | – | activity in precision-cut lung slices (in words) (SARS-CoV-2; 0.5µM, ref Hoffmann et al, EBiomedicine 2021): non-active; inhibition, donor 1 (SARS-CoV-2; [5]): 40%; inhibition, donor 2 (SARS-CoV-2; [5]): 60%; inhibition in precision-cut lung slices (SARS-CoV-2; 10µM, ref Hoffmann et al, EBiomedicine 2021): approx. 40%; CC50 (in vitro [1]): > 100 µM; expression of CXCL10 in CD11b+CD14- myeloid cells (in words) [2]: significantly reduced; expression of IL-6 in CD11b+CD14+ myeloid cells (in words) [2]: significantly reduced; clinical benefit (in words) (COVID-19 patients; COVID-19 patients receiving camostat within the first 48h of admission): no significant benefit; CC50 (in vitro [3]; CC50 Vero E6): > 100 µM
C[C@@H]1C[C@H]2[C@@H]3CCC4=CC(=O)C=C[C@]4(C)[C@@]3(F)[C@@H](O)C[C@]2(C)[C@@]1(O)C(=O)CO [Dexamethasone] | > 100 µM | > 100 µM | 28-day mortality (in words) (COVID-19 patients; patients receiving invasive mechanical ventilation): decreased
C[C@]12C=CC(=O)C=C1CC[C@@H]1[C@@H]2C(=O)C[C@@]2(C)[C@H]1CC[C@]2(O)C(=O)CO [Prednisone] | > 100 µM | > 100 µM | ACE2 expression after anti-inflammatory drugs (in words) (ACE2 expression): no effect on ACE2 expression
CCCCCCCCCCCCOS(=O)(=O)[O-].[Na+] [SLS, Sodium lauryl sulfate] | – | – | CC50 (HLT cells): ~83.2 µM; CC50 (VeroE6 cells): 87 µM
CC1(C)[C@@H](O[C@H]2O[C@H](C(=O)O)[C@@H](O)[C@H](O)[C@H]2O[C@@H]2O[C@H](C(=O)O)[C@@H](O)[C@H](O)[C@H]2O)CC[C@]2(C)[C@H]3C(=O)C=C4[C@@H]5C[C@@](C)(C(=O)O)CC[C@]5(C)CC[C@@]4(C)[C@]3(C)CC[C@@H]12 [Glycyrrhizin] | > 100 µM | > 100 µM | –
[H]/N=C(/N)N/C(=N/[H])NCCc1ccccc1 [Phenformin] | > 100 µM | > 100 µM | –
O=C1CN(/N=C/c2ccc([N+](=O)[O-])o2)C(=O)N1 [Nitrofurantoin] | – | – | CC50 (in vitro [1]): > 100 µM; CC50 (in vitro [3]; CC50 Vero E6): > 100 µM
O=c1c(O)c(-c2cc(O)c(O)c(O)c2)oc2cc(O)cc(O)c12 [Myricetin] | > 100 µM | > 100 µM | IC50 (thrombin): 56 µM
CCCCCCCCCCCC(=O)OCC(O)CO (stereo not drawn) [Monolaurin] | – | – | CC50 (HLT cells): > 100 µM; CC50 (VeroE6 cells): > 100 µM
CC(C)Cc1ccc(C(C)C(=O)O)cc1 (stereo not drawn) [Ibuprofen] | > 100 µM | > 100 µM | ACE2 expression after anti-inflammatory drugs (in words) (ACE2 expression): no effect on ACE2 expression
Cc1ccnc(NS(=O)(=O)c2ccc(N)cc2)n1 [Sulfamerazine] | > 100 µM | > 100 µM | –
O=c1cc(-c2ccc(O)c(O)c2)oc2cc(O)cc(O)c12 [Luteolin] | > 100 µM | > 100 µM | –
NC(=O)[C@@H]1CCCN1C(=O)[C@H](Cc1c[nH]cn1)NC(=O)[C@@H]1CCC(=O)N1 [Protilerin] | – | – | CC50 (HLT cells): > 100 µM; CC50 (VeroE6 cells): > 100 µM
CC1=C(CC(=O)O)c2cc(F)ccc2/C1=C\c1ccc([S+](C)[O-])cc1 (stereo not drawn) [Sulindac] | > 100 µM | > 100 µM | –
O=C1C[C@@H](c2ccc(O)c(O)c2)Oc2cc(O)cc(O)c21 [Eriodictyol] | > 100 µM | > 100 µM | –
C[C@]12CCC(=O)C=C1CC[C@@H]1[C@@H]2[C@@H](O)C[C@@]2(C)[C@H]1CC[C@]2(O)C(=O)CO [Cortisol] | > 100 µM | > 100 µM | ACE2 expression after anti-inflammatory drugs (in words) (ACE2 expression): no effect on ACE2 expression
Cc1ccc(-c2cc(C(F)(F)F)nn2-c2ccc(S(N)(=O)=O)cc2)cc1 [Celecoxib] | ~100 µM | 13 µM | –
N#C[C@@H]1CCCN1C(=O)CNC12CC3CC(CC(O)(C3)C1)C2 [Vidagliptin, Vildagliptin] | > 100 µM | > 100 µM | –
Ergoloid mesylates | – | – | expression of cytokines in CD11b+CD14+ myeloid cells (in words) [2]: significantly reduced the expression of cytokines; cell toxicity in HLT cells (HLT cells; 20 μM, 48h): > 60%; CC50 (HLT cells): ~100 µM; CC50 (VeroE6 cells): 18.7 µM
O=c1c(O)c(-c2ccc(O)c(O)c2)oc2cc(O)cc(O)c12 [Quercetin] | > 100 µM | > 100 µM | –

Molecule | CC50 (in vitro [1]; absence of virus) | CC50 (in vitro [3]; CC50 Vero E6, absence of virus) | further results
C[C@H](O)[C@H](O)[C@H]1CNc2nc(N)[nH]c(=O)c2N1 [Tetrahydrobiopterin, Tetrahydrobiopterin dihydrochloride] | > 100 µM | > 100 µM | –
N[C@@H](CC(=O)N1CCn2c(nnc2C(F)(F)F)C1)Cc1cc(F)c(F)cc1F [Sitagliptin] | > 100 µM | > 100 µM | –
CC1(C)Cc2c(-c3ccccc3)c(-c3ccc(Cl)cc3)c(CC(=O)O)n2C1 [Licofelone] | ~53.6 µM | > 100 µM | –
GM-CSF | – | – | ACE2 expression in enriched AT-II cells after immune stimuli (in words) (ACE2 expression): did not impact ACE2 protein production
Cc1cc(O)c2c(=O)c3c(O)cc(O)c4c5c(O)cc(O)c6c(=O)c7c(O)cc(C)c8c1c2c(c34)c(c78)c65 [Hypericin] | 0.14 µM | 4.8 µM | –
IL-1β | – | – | ACE2 expression in enriched AT-II cells after immune stimuli (in words) (ACE2 expression): decreased the fraction of AT-II cells expressing ACE2
CCCCCCCCCC(=O)OCC(O)CO (stereo not drawn) [Monocaprin] | – | – | CC50 (HLT cells): > 100 µM; CC50 (VeroE6 cells): > 100 µM
C[C@]1(Cn2ccnn2)[C@H](C(=O)O)N2C(=O)C[C@H]2S1(=O)=O [Tazobactam] | > 100 µM | > 100 µM | –
CC(C)C(=O)OCC(=O)[C@@]12O[C@H](C3CCCCC3)O[C@@H]1C[C@H]1[C@@H]3CCC4=CC(=O)C=C[C@]4(C)[C@H]3[C@@H](O)C[C@@]12C [Ciclesonide] | > 100 µM | > 100 µM | expression of CXCL10 in CD11b+CD14- myeloid cells (in words) [2]: induced CXCL10 secretion
CC(C)[C@H](N)C(=O)OCCOCn1cnc2c(=O)[nH]c(N)nc21 [Valaciclovir] | > 100 µM | > 100 µM | –
CCCCCCCCCCCC(=O)O [Lauric acid] | – | – | CC50 (HLT cells): > 100 µM; CC50 (VeroE6 cells): > 100 µM
CCN(CCO)CCCC(C)Nc1ccnc2cc(Cl)ccc12 (stereo not drawn) [Hydroxychloroquine] | > 100 µM | > 100 µM | viral replication of replication-competent SARS-CoV-2 in HLT cells (in words) [4]: effective; effectiveness as a treatment for COVID-19 (in words) (COVID-19 patients; clinical trials): failed to show effectiveness; cytotoxicity in HLT (in words) (HLT cells; up to 100μM): no apparent cytotoxicity; cytotoxicity in VeroE6 (in words) (VeroE6 cells; up to 100μM): no apparent cytotoxicity
Ivermectin | – | – | expression of cytokines in the HLT inflammation model (in words) [2]: did not affect the expression of cytokines; proportion of PCR-positive patients (in words) (COVID-19 patients; seven days after treatment): failed to show a reduction; CC50 (HLT cells): ~100 µM; CC50 (VeroE6 cells): 20.2 µM
Cc1cccn2c(=O)c(-c3nnn[nH]3)cnc12 [Pemirolast, Pemirolast potassium] | > 100 µM | > 100 µM | –
O=C1Nc2ccccc2/C1=C1/Nc2ccccc2C1=O [Indirubin] | – | – | CC50 (in vitro [1]): > 100 µM; CC50 (in vitro [3]; CC50 Vero E6): > 100 µM
Oc1ccc(CC2NCCc3cc(O)c(O)cc32)cc1 (stereo not drawn) [Higenamine, Higenamine hydrochloride] | > 100 µM | > 100 µM | –
CN(C)C(=N)N=C(N)N [Metformin] | > 100 µM | > 100 µM | –
COc1ccc2cc1Oc1ccc(cc1)C[C@H]1c3c(cc4c(c3Oc3cc5c(cc3OC)CCN(C)[C@@H]5C2)OCO4)CCN1C [Cepharanthine] | 13.8 µM | 22.3 µM | expression of IL-6 in CD11b+CD14+ myeloid cells (in words) [2]: reduced IL-6 production; CC50 (HLT cells): 16.1 µM; CC50 (VeroE6 cells): 22.4 µM
B1 | – | – | ACE2 expression in enriched AT-II cells after immune stimuli (in words) (ACE2 expression): did not impact ACE2 protein production
